Earlier results on 1 molecule are cited in patent publication US10076496B2, “Engineering of polymer-stabilized nanoparticles for drugs with Log P values below 6 by controlled antisolvent precipitation” (THE CHINESE UNIVERSITY OF HONG KONG, priority 2011, dated 2018).

SMILES strings stand for the structures.

By Log P is commonly meant the decadic logarithm of the partition coefficient of the neutral form, usually between octanol and water.

On to `CC(=O)O[C@H]1C(=O)[C@@]2(C)[C@H]([C@H](OC(=O)c3ccccc3)[C@]3(O)C[C@H](OC(=O)[C@H](O)[C@@H](NC(=O)c4ccccc4)c4ccccc4)C(C)=C1C3(C)C)[C@]1(OC(C)=O)CO[C@@H]1C[C@@H]2O` [paclitaxel], for which the “Log P” value is on record as 7.38.
